The text below walks through data of US12497376B2, “Compound [2-(dimethylamino)-2-phenylbutyl]-3,4,5-trimethoxybenzoate 4-methyl-2H-chromen-2-on-7-yl sulphate and use thereof” (LTD “VALENTA—INTELLEKT”, priority 2020, dated 2025).

This experiment has as its system male mice of the C57 BL/6 line. As to the kind of experiment: von Frey filament test (mechanical allodynia) in the model of visceral pain induced by TNBS colitis. The class given is in vivo. To be noted: for Mechanical allodynia intensity, g (mean ± standard error of the mean): oral once daily from day 3 after TNBS, von Frey test on Day 28, placebo 2.0 ± 0.5. On the procedure:
In the experiments, 13-week old male mice of the C57 BL/6 line were used. Sixty (60) animals were randomly distributed into four (4) groups of equal number (N=15) characterized by the dosage of the administered compound.
The study was conducted for three different doses of the compound of Formula I. A group of mice receiving only the carrier (starch solution) served as the control group (placebo group).
Colitis was induced by introducing 0.1 mL of TNBS (trinitrobenzene sulfonate) (130 μg/mL in 30% EtOH) into the large intestine through a polyethylene catheter introduced by 3 cm into the anus of mice anesthetized with isoflurane. Then, the mice were arranged individually, and changes in the body weight, appearance and behavior were observed daily. A histological study of the mucosa structure, cell infiltrate, intestinal crypt abscesses and goblet cells confirmed significant damage caused by the TNBS introduction on Day 3 and, in a significant degree, on Day 7 [6].
The preparations were introduced orally in three days after the TNBS introduction and then once daily for the whole study period.
To assess pain behavior, the von Frey test with filaments (appearance of mechanical allodynia) on Day 28 after the TNBS introduction.
The animals were put into an acrylic chamber (15×15×15 cm) raised above the ground with a wire mesh on the bottom. Before starting the tests, the animals were left in the chamber for 5-10 minutes for adaptation. Then, the abdominal cavity of the animal was stimulated with von Frey calibrated filaments (or fibers) (BIOSEB, USA). The filaments were a set of 10 standard plastic fibers of increasing diameters. The fiber rigidity, which is expressed as a minimal force required to flex a fiber, was increased in such calibration logarithmically, with absolute values from 0.6 g to 26 g. Sensitivity threshold of each mouse was determined in three repeats (6 touches in total with 10-second interval for each filament; the interval between successive touches with different filaments was 2 minutes). The abdominal surface was poked with a force required to flex the fiber, and the fiber was held in that position for 6-8 seconds. The positive response was recorded, if the animal sharply winced during touching. A sensitivity threshold was determined by a minimal pressure causing the wincing reflex reaction (4 times of 6 touches).
An average score received in a corresponding test and a standard error of the mean for each value were calculated for each study group (n=15).

On to “[2-(dimethylamino)-2-phenylbutyl]-3,4,5-trimethoxybenzoate 4-methyl-2H-chromen-2-on-7-yl sulphate [Compound of Formula I]”, for which the “Mechanical allodynia intensity, g (mean ± standard error of the mean)” value is, setting by setting: (dose 10 mg/day (recalculated for a human), group 2, n=15) 10.0 ± 0.5 g; (dose 300 mg/day (recalculated for a human), group 3, n=15) 21.4 ± 0.9 g; (dose 1,800 mg/day (recalculated for a human), group 4, n=15) 23.1 ± 1.0 g. Moreover, the “Indices of mechanical allodynia versus placebo” value (groups receiving the compound (10, 300, 1,800 mg/day), p < 0.05 versus placebo) is “significantly lower”.
